Results from ChEMBL document CHEMBL1201862, “PubChem BioAssay data set” (2004).
Where a name gives a salt, the structure may show the parent alone.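 Grown in 96-well plates, cells were treated for 48 hours with each compound at five concentrations. Insufficient inhibition: endpoint recorded as highest concentration tested. Abbreviation: GI50, concentration required for 50% inhibition of growth.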 Active and inactive are the calls of the source. No stated cut-off is given here; in the data, active = GI50 up to about 1.1 µM and inactive = higher.

Legend:
Assay in all cases: NCI-60 cell line screen, 48 h
SF-268 = system: SF-268
M14 = system: M14
NCI/ADR-RES = system: NCI/ADR-RES
SNB-75 = system: SNB-75
SK-OV-3 = system: SK-OV-3
LOX IMVI = system: LOX IMVI
HCT-116 = system: HCT-116
SNB-19 = system: SNB-19
SN12C = system: SN12C
MDA-MB-435 = system: MDA-MB-435
MOLT-4 = system: MOLT-4
NCI-H23 = system: NCI-H23
HT-29 = system: HT-29
K562 = system: K562
HCT-15 = system: HCT-15
T47D = system: T47D
SR = system: SR
HOP-92 = system: HOP-92
HL-60 = system: HL-60
A498 = system: A498

Compound: O=c1c2cn[nH]c2nc2scc(-c3ccc(Cl)cc3)n12
- GI50 (SF-268): > 100 µM (inactive)
- GI50 (M14): > 100 µM (inactive)
- GI50 (NCI/ADR-RES): > 100 µM (inactive)
- GI50 (SNB-75): 16.9 µM (inactive)
- GI50 (SK-OV-3): > 100 µM (inactive)
- GI50 (LOX IMVI): > 100 µM (inactive)
- GI50 (HCT-116): > 100 µM (inactive)
- GI50 (SNB-19): > 100 µM (inactive)
- GI50 (SN12C): > 100 µM (inactive)
- GI50 (MDA-MB-435): > 100 µM (inactive)
- GI50 (MOLT-4): > 100 µM (inactive)
- GI50 (NCI-H23): > 100 µM (inactive)
- GI50 (HT-29): > 100 µM (inactive)
- GI50 (K562): > 100 µM (inactive)
- GI50 (HCT-15): > 100 µM
- GI50 (T47D): > 100 µM (inactive)
- GI50 (SR): > 100 µM (inactive)

Compound: COc1ccc2c(C)cc(N/N=C/c3ccc(OC)c4ccccc34)nc2c1
- GI50 (SF-268): 15.9 µM (inactive)
- GI50 (M14): 17.1 µM (inactive)
- GI50 (NCI/ADR-RES): 14.4 µM (inactive)
- GI50 (SNB-75): 22.9 µM (inactive)
- GI50 (SK-OV-3): 17.3 µM (inactive)
- GI50 (HOP-92): 11.2 µM (inactive)
- GI50 (LOX IMVI): 3.71 µM (inactive)
- GI50 (HCT-116): 5.35 µM (inactive)
- GI50 (SNB-19): 18.8 µM (inactive)
- GI50 (SN12C): 2.13 µM (inactive)
- GI50 (MDA-MB-435): 11.2 µM (inactive)
- GI50 (MOLT-4): 3.97 µM (inactive)
- GI50 (HL-60): 20.8 µM (inactive)
- GI50 (NCI-H23): 16.5 µM (inactive)
- GI50 (HT-29): 7.82 µM (inactive)
- GI50 (K562): 10.1 µM (inactive)
- GI50 (HCT-15): 10.1 µM
- GI50 (T47D): 5.51 µM (inactive)
- GI50 (SR): 4.17 µM (inactive)

Compound: CC[C@@]1(O)C(=O)OCc2c1cc1n(c2=O)Cc2cc3c(CN(C)C)c(O)ccc3nc2-1 [TOPOTECAN HYDROCHLORIDE]
- GI50 (SF-268): 0.0147 µM (active)
- GI50 (NCI/ADR-RES): 0.193 µM (active)
- GI50 (SNB-75): 0.0215 µM (active)
- GI50 (HOP-92): 0.0318 µM (active)
- GI50 (HCT-116): 0.0408 µM (active)
- GI50 (SNB-19): 0.0179 µM (active)
- GI50 (SN12C): 0.0214 µM (active)
- GI50 (MDA-MB-435): 0.159 µM (active)
- GI50 (MOLT-4): 0.0125 µM (active)
- GI50 (HL-60): 0.0268 µM (active)
- GI50 (NCI-H23): 0.0217 µM (active)
- GI50 (A498): 0.11 µM (active)
- GI50 (HT-29): 0.132 µM (active)
- GI50 (K562): 0.0592 µM (active)
- GI50 (HCT-15): 0.395 µM
- GI50 (T47D): 0.00571 µM (active)

Compound: COc1ccc(Cc2nc3cc(C(F)(F)F)ccc3n2CCCN(C)C)cc1
- GI50 (SF-268): 16.8 µM (inactive)
- GI50 (M14): 14.7 µM (inactive)
- GI50 (NCI/ADR-RES): 14.6 µM (inactive)
- GI50 (SK-OV-3): 16.7 µM (inactive)
- GI50 (HOP-92): 26.5 µM (inactive)
- GI50 (LOX IMVI): 19.8 µM (inactive)
- GI50 (SNB-19): 27.6 µM (inactive)
- GI50 (MDA-MB-435): 16.1 µM (inactive)
- GI50 (MOLT-4): 2.27 µM (inactive)
- GI50 (HL-60): 11.8 µM (inactive)
- GI50 (NCI-H23): 15.7 µM (inactive)
- GI50 (A498): 17.3 µM (inactive)
- GI50 (HT-29): 18.5 µM (inactive)
- GI50 (K562): 14.4 µM (inactive)
- GI50 (HCT-15): 20 µM
- GI50 (T47D): 15.7 µM (inactive)

Compound: Cc1cc2ncn(C3CCCO3)c2cc1C (stereo unspecified)
- GI50 (SF-268): > 100 µM (inactive)
- GI50 (M14): > 100 µM (inactive)
- GI50 (NCI/ADR-RES): > 100 µM (inactive)
- GI50 (SNB-75): 71.6 µM (inactive)
- GI50 (SK-OV-3): > 100 µM (inactive)
- GI50 (HOP-92): > 100 µM (inactive)
- GI50 (LOX IMVI): > 100 µM (inactive)
- GI50 (HCT-116): > 100 µM (inactive)
- GI50 (SNB-19): > 100 µM (inactive)
- GI50 (SN12C): > 100 µM (inactive)
- GI50 (MDA-MB-435): > 100 µM (inactive)
- GI50 (MOLT-4): > 100 µM (inactive)
- GI50 (HL-60): > 100 µM (inactive)
- GI50 (NCI-H23): > 100 µM (inactive)
- GI50 (HT-29): > 100 µM (inactive)
- GI50 (K562): > 100 µM (inactive)
- GI50 (HCT-15): > 100 µM
- GI50 (T47D): > 100 µM (inactive)
- GI50 (SR): > 100 µM (inactive)

Compound: Cc1cccc(Nc2nc3ccccc3nc2NS(=O)(=O)c2ccc(N)cc2)c1
- GI50 (SF-268): 63.7 µM (inactive)
- GI50 (M14): 37.8 µM (inactive)
- GI50 (NCI/ADR-RES): 36.1 µM (inactive)
- GI50 (SNB-75): 52.8 µM (inactive)
- GI50 (SK-OV-3): 54.8 µM (inactive)
- GI50 (HOP-92): 40.3 µM (inactive)
- GI50 (LOX IMVI): 52.1 µM (inactive)
- GI50 (HCT-116): 33.1 µM (inactive)
- GI50 (SNB-19): 31.3 µM (inactive)
- GI50 (SN12C): 36.6 µM (inactive)
- GI50 (MDA-MB-435): 38.6 µM (inactive)
- GI50 (MOLT-4): 11.7 µM (inactive)
- GI50 (HL-60): 28.1 µM (inactive)
- GI50 (NCI-H23): 5.61 µM (inactive)
- GI50 (HT-29): 48.3 µM (inactive)
- GI50 (K562): 25.2 µM (inactive)
- GI50 (HCT-15): 34.1 µM
- GI50 (T47D): 34.5 µM (inactive)
- GI50 (SR): 19.8 µM (inactive)
